In ChEMBL document CHEMBL4311942, “Design of Trp-Rich Dodecapeptides with Broad-Spectrum Antimicrobial Potency and Membrane-Disruptive Mechanism” (J Med Chem, 2019):
≈ marks a conversion by molar mass, not a printed value. Calls of active or inactive are those of the source. The rule behind the calls is not given here. Where a SMILES comes first, the peptide text is derived from it.

What was measured:
Acinetobacter baumannii [1] = experiment: Antibacterial activity against Acinetobacter baumannii AB1901 clinical isolate incubated for 18 to 24 hrs by broth microdilution method; type: functional
Acinetobacter baumannii [2] = experiment: Antibacterial activity against Acinetobacter baumannii AB1902 clinical isolate incubated for 18 to 24 hrs by broth microdilution method; type: functional
Erythrocyte = experiment: Haemolytic activity in human erythrocytes assessed as lowest concentration causing 5% hemolysis after 1 hr; type: ADME, cell-based
Escherichia coli [3] = experiment: Resistance index, ratio of MIC for antibacterial activity against Escherichia coli ATCC 25922 treated over 35 serial passage by sequential passaging method to MIC for antibacterial activity against Escherichia coli ATCC 25922 incubated for 18 to 24 hrs by broth microdilution method; type: functional
Lipopolysaccharide (LPS) = experiment: Displacement of BODIPY-TR-cadaverine from Escherichia coli O111:B4 LPS by spectrofluorophotometric method
Escherichia coli [4] = experiment: Induction of outer membrane permeabilization in Escherichia coli UB1005 assessed as increase in NPN uptake at 0.5 to 4 uM by spectrofluorophotometric assay; type: organism-based
Escherichia coli [5] = experiment: Induction of cytoplasmic membrane depolarization in Escherichia coli UB1005 at 2 uM by DiSC3-5 dye based fluorescence method; type: organism-based
Escherichia coli [6] = experiment: Inhibition of swimming motility of Escherichia coli ATCC 25922 at 1 to 4 uM after 16 hrs; type: functional, organism-based
Pseudomonas aeruginosa = experiment: Antibacterial activity against Pseudomonas aeruginosa PAO1 at sub-MIC treated over 35 serial passages by resistant development assay; type: functional, organism-based
Staphylococcus aureus [7] = experiment: Antibacterial activity against Staphylococcus aureus ATCC 25923 incubated for 18 to 24 hrs by broth microdilution method; type: functional
Staphylococcus aureus [8] = experiment: Antibacterial activity against Staphylococcus aureus ATCC 29213 incubated for 18 to 24 hrs by broth microdilution method; type: functional
Salmonella typhimurium = experiment: Antibacterial activity against Salmonella enterica serovar typhimurium C77-31 incubated for 18 to 24 hrs by broth microdilution method; type: functional, Salmonella enterica subsp. enterica serovar Typhimurium
Escherichia coli [9] = experiment: Antibacterial activity against Escherichia coli UB1005 incubated for 18 to 24 hrs by broth microdilution method; type: functional
Escherichia coli [10] = experiment: Antibacterial activity against Escherichia coli ATCC 25922 incubated for 18 to 24 hrs by broth microdilution method; type: functional
[11] = test system: Staphylococcus epidermidis; experiment: Antibacterial activity against Staphylococcus epidermidis ATCC 12228 incubated for 18 to 24 hrs by broth microdilution method; type: functional
[12] = Therapeutic index, ratio of MHC for human RBC to geometric mean of peptide MIC for Escherichia coli ATCC 25922; type: toxicity; conditions: pooled result: one value given for 6 cell lines, strains, targets or settings, read-out: TI
[13] = Cytotoxicity against mouse RAW264.7 cells assessed as cell survival at <= 32 uM after 24 hrs by MTT assay relative to control; type: cell-based; conditions: RAW264.7 cells, up to 32 µM, read-out: Activity
[14] = Solubility of the compound; type: physicochemical

| Structure (SMILES) | MIC (Acinetobacter baumannii [1]) [µM] | MIC (Acinetobacter baumannii [2]) [µM] | MHC (Erythrocyte) [µM] | Ratio (Escherichia coli [3]) | Activity (Lipopolysaccharide (LPS)) | Activity (Escherichia coli [4]) | Activity (Escherichia coli [5]) | inhibition (Escherichia coli [6]) | Activity (Pseudomonas aeruginosa) | MIC (Staphylococcus aureus [7]) [µM] | MIC (Staphylococcus aureus [8]) [µM] | MIC (Salmonella typhimurium) [µM] | MIC (Escherichia coli [9]) [µM] | MIC (Escherichia coli [10]) [µM] | MIC [11] [µM] | selectivity ratio [12] | viability at 24 h [13] [%] | solubility [14] |
| --- | --- | --- | --- | --- | --- | --- | --- | --- | --- | --- | --- | --- | --- | --- | --- | --- | --- | --- |
| CC[C@H](C)[C@H](NC(=O)CN)C(=O)NCC(=O)N[C@@H](C)C(=O)N[C@H](C(=O)N[C@@H](CC(C)C)C(=O)N[C@@H](CCCCN)C(=O)N[C@H](C(=O)N[C@@H](CC(C)C)C(=O)N[C@H](C(=O)N[C@H](C(=O)NCC(=O)N[C@@H](CC(C)C)C(=O)N1CCC[C@H]1C(=O)N[C@@H](C)C(=O)N[C@@H](CC(C)C)C(=O)N[C@H](C(=O)N[C@@H](CO)C(=O)N[C@@H](Cc1c[nH]c2ccccc12)C(=O)N[C@H](C(=O)N[C@@H](CCCCN)C(=O)N[C@@H](CCCNC(=N)N)C(=O)N[C@@H](CCCCN)C(=O)N[C@@H](CCCNC(=N)N)C(=O)N[C@@H](CCC(N)=O)C(=O)N[C@@H](CCC(N)=O)C(N)=O)[C@@H](C)CC)[C@@H](C)CC)[C@@H](C)O)[C@@H](C)O)C(C)C)C(C)C [MELITTIN] | 2 (≈ 5.69 µg/mL) | 2 (≈ 5.69 µg/mL) | 0.25 | 4 | Dose-dependent effect | Active | Active | Active | inactive | – | – | – | – | – | – | – | – | – |
| CC(C)C[C@H](NC(=O)[C@H](CCCNC(=N)N)NC(=O)[C@H](Cc1c[nH]c2ccccc12)NC(=O)[C@H](CCCNC(=N)N)NC(=O)[C@@H](NC(=O)[C@H](Cc1c[nH]c2ccccc12)NC(=O)[C@H](Cc1c[nH]c2ccccc12)NC(=O)[C@H](CCCNC(=N)N)NC(=O)[C@H](CC(C)C)NC(=O)[C@H](Cc1c[nH]c2ccccc12)NC(=O)[C@@H](N)CCCNC(=N)N)[C@@H](C)O)C(=O)N[C@@H](CCCCN)C(N)=O (H-RWLRWWTRWRLK-NH2) | – | – | 128 | – | – | – | – | – | – | 2 (≈ 3.68 µg/mL) | 4 (≈ 7.37 µg/mL) | 4 (≈ 7.37 µg/mL) | 2 (≈ 3.68 µg/mL) | 4 (≈ 7.37 µg/mL) | 4 (≈ 7.37 µg/mL) | 40.4 | ≥ 70 | Insoluble |
